Assay results as given in patent publication US8362023B2, “Pyrazolo pyrimidines” (Hoffmann-La Roche Inc., priority 2011, dated 2013).
Counter-ions that a name gives are not always drawn.

Tests used:
Human DYRK1B = target: T1, Human DYRK1B (Homo sapiens, UniProt Q9Y463); experiment: DYRK1B Kinase TR-FRET (IMAP-Tb) Assay; assay type: biochemical; settings: TR-FRET (IMAP-Tb); ATP 70 μM; 37° C. for 60 minutes; averages of multiple runs; read-out: Enzyme IC50 (μM) DYRK1B
T1 construct: purchased Invitrogen PR8350B (former PV4649)

Human DYRK1A = target: T2, Human DYRK1A (Homo sapiens, UniProt Q13627); experiment: DYRK1A Kinase TR-FRET (IMAP-Tb) Assay; assay type: biochemical; settings: TR-FRET (IMAP-Tb); ATP 70 μM; 37° C. for 60 minutes; averages of multiple runs; read-out: Enzyme IC50 (μM) DYRK1A
T2 construct: purchased Invitrogen PV3997
Method in brief: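 Human DYRK1A phosphorylates a fluorescent substrate peptide (1.0 μM) in HEPES pH 7.0 buffer with Mg2+, DTT and vanadate for 60 min at 37 °C. The phosphopeptide is captured by IMAP beads carrying a Tb tracer, and the TR-FRET signal is read at 340 nm excitation. IC50 reflects inhibition of substrate phosphorylation.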

[1] = tested on: SW620 human colon cancer cells; experiment: SW620 Cell Viability Assay; assay type: cell-based; settings: SW-620, 96 h, CellTiter-Glo Luminescent Cell Viability Assay, 4 days incubation, read-out: Cellular EC50 (μM) SW620
Experimental: SW620 Cell Viability Assay
1. Cell Plate Preparation: SW620 human colon cancer cells (known to express DYRK1B), obtained from ATCC, were seeded into 96-well plates at 3×10^3 cells/well in 50 μL of media. • Harvested the required number of cells (counts & viability determined by Guava Viacount). • Centrifuge cells to pellet and removed supernant. • Resuspended in growth media (50 μL/well) & pipetted thoroughly to break up clumps. • Setup for ˜100 wells/plate, therefore, VT=5 mL/plate @ […].
1A. Some cells (S—) were allowed to attach for 24 hrs, serum starved for 48 hrs, and then followed with test compound treatments.
Test compound solution were prepared in regular corresponding media supplemented with serum.
2. Test compound Preparation: Drugs were solubilized in either DMSO or media and prepared at various stock concentrations. • All compounds were incubated at 37° C. for 30 minutes and vortexed. • (5 mM stocks of test compound were prepared for non-soluble test compounds)
3. Test compound Plate Preparation: • The 10 mM test compound stock was diluted to a concentration of 100× the final Cmax concentration. • Then the test compound stock is diluted 50-fold in media and/or second test compound for a final Cmax concentration in the test compound plate. • The Cmax in the test compound plate (2% DMSO) is 2-fold higher than the final Cmax in the cell plate (60 μl, titrations were 1:3).
4. Viability Assay: This assay was performed as follows: • Transfer 50 μL of test compound solution per well from the test compound plate onto the cell plate prepared in Step #1. • Mix the plate with treated cells by pipetting up and down three times with 200 μL multi-channel pipette. • Incubate the cells in 5% CO2 incubator @ 37° C. for 4 days. • Run the CellTiter-Glo™ Luminescent Cell Viability Assay.
The results of this assay, given as EC50 values, indicate the concentration of test compound that inhibits tumor cell proliferation by 50%.

T1 sequence (Q9Y463 whole entry): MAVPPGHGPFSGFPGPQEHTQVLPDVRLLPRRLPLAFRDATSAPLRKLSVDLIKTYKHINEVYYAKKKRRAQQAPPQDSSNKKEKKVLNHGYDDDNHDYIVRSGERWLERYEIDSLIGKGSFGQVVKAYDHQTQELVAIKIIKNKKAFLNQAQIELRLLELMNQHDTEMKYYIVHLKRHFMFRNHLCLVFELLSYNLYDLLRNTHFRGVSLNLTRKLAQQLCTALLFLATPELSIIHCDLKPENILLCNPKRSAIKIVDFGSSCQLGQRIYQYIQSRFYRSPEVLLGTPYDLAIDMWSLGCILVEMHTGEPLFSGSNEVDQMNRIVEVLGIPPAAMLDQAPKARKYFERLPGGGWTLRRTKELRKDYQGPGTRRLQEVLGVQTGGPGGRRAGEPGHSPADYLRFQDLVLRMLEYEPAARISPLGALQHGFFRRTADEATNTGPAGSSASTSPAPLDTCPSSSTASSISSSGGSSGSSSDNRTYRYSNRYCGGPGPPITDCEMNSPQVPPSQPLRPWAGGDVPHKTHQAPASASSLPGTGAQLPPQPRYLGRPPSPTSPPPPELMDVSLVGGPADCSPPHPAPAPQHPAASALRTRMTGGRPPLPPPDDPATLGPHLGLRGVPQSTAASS

Row | SMILES | IC50 (Human DYRK1B) | IC50 (Human DYRK1A) | EC50 [1]
1 | N[C@H]1CC[C@H](Nc2ncc3c(-c4cccc(NCc5ccccc5)n4)n[nH]c3n2)CC1 [Example 49, N-[3-(6-Benzylamino-pyridin-2-yl)-1H-pyrazolo[3,4-d]pyrimidin-6-yl]-cyclohexane-1,4-diamine] | 0.101 µM | 0.0124 µM | 1.71 µM
2 | c1ccc(CNc2nccc(-c3n[nH]c4nc(NCCN5CCOCC5)ncc34)n2)cc1 [Example 61, [3-(2-Benzylamino-pyrimidin-4-yl)-1H-pyrazolo[3,4-d]pyrimidin-6-yl]-(2-morpholin-4-yl-ethyl)-amine; hydrochloride] | 0.0958 µM | 0.061 µM | > 10 µM
3 | N[C@H]1CC[C@H](Nc2ncc3c(-c4ccnc(NCc5ccsc5)n4)n[nH]c3n2)CC1 [Example 66, N-(3-{2-[(Thiophen-3-ylmethyl)-amino]-pyrimidin-4-yl}-1H-pyrazolo[3,4-d]pyrimidin-6-yl)-cyclohexane-1,4-diamine; hydrochloride] | 0.0172 µM | 0.0148 µM | 0.04 µM
4 | NCCC(Nc1cccc(-c2n[nH]c3nc(N[C@H]4CC[C@H](N)CC4)ncc23)c1)c1ccccc1 (stereo partly drawn) [Example 79, N-{3-[3-(3-Amino-1-phenyl-propylamino)-phenyl]-1H-pyrazolo[3,4-d]pyrimidin-6-yl}-cyclohexane-1,4-diamine; hydrochloride] | 0.601 µM | 1.11 µM | > 10 µM
5 | c1cc(NCc2cccs2)cc(-c2n[nH]c3nc(NCCN4CCOCC4)ncc23)c1 [Example 54, (2-Morpholin-4-yl-ethyl)-(3-{3-[(thiophen-2-ylmethyl)-amino]-phenyl}-1H-pyrazolo[3,4-d]pyrimidin-6-yl)-amine] | 4.96 µM | 3.85 µM | > 10 µM
6 | Clc1ccccc1CNc1nccc(-c2n[nH]c3nc(NCCN4CCOCC4)ncc23)n1 [Example 63, {3-[2-(2-Chloro-benzylamino)-pyrimidin-4-yl]-1H-pyrazolo[3,4-d]pyrimidin-6-yl}-(2-morpholin-4-yl-ethyl)-amine; hydrochloride] | 0.0671 µM | 0.0371 µM | 0.9 µM
7 | N[C@H]1CC[C@H](Nc2ncc3c(-c4cccc(NCc5ccc(Cl)cc5)c4)n[nH]c3n2)CC1 [Example 55, N-{3-[3-(4-Chloro-benzylamino)-phenyl]-1H-pyrazolo[3,4-d]pyrimidin-6-yl}-cyclohexane-1,4-diamine] | 0.181 µM | 0.502 µM | 1.85 µM
